Laboratory results as given in patent US10960005B2, “Treatment of relapsed and/or refractory solid tumors and non-hodgkin's lymphomas” (CELGENE QUANTICEL RESEARCH, INC., priority 2016, dated 2021).
Like-named read-outs stand apart in the source and are kept apart here.

Columns and labels:
LNCaP cells = experiment: LNCaP cell proliferation with rapamycin; format: cell-based, human; conditions: 100 nM Compound A + 100 nM rapamycin vs rapamycin alone; 90 hours
[1] = test system: LXFS 2156 SCLC patient-derived xenograft; experiment: Efficacy in LXFS 2156 SCLC PDX model; format: in vivo, mice; conditions: 5 mg base/kg orally QD×23
[2] = test system: gene expression (ST18, FREM2) in MS-1 cells; experiment: Gene expression modulation (RNA-seq, qRT-PCR) in cultured MS-1 cells; format: cell-based, human; conditions: 10 and 100 nM, three days
Method: 22, 66, or 200 nM for qRT-PCR analysis.
Libraries were sequenced on an Illumina NextSeq® 500 System (Illumina, San Diego, Calif.) using 75 base paired-end RNA sequencing. Sequenced reads were mapped to the hg19 human genome build and differential expression was determined by analysis of variance across all replicates relative to the vehicle control
Sequenced reads were mapped to the hg19 human genome build using the Spliced Transcripts Alignment to a Reference (STAR) software tool (©Alexander Dobin, 2009-2016) and transcript counts were normalized using the Empirical Analysis of Digital Gene Expression Data in R (edgeR) and Differential gene expression analysis based on the negative binomial distribution (DESeq2) software tools (©Bioconductor, 2003-2017). Differential expression was determined by analysis of variance across all replicates relative to the vehicle control.

[3] = test system: LU2514 SCLC patient-derived xenograft; experiment: Efficacy in LU2514 HuPrime SCLC PDX model; format: in vivo, mice; conditions: Day 28
Method: Tumor growth inhibition analysis was performed on Day 28 post treatment, the last day of dosing.
In both studies with LU2514 animal model.

NCI-H69 SCLC cell line = experiment: Antiproliferative activity, NCI-H69; format: cell-based, human; conditions: 3D assay; Calcein AM
[4] = test system: LU1480 SCLC patient-derived xenograft; experiment: Efficacy in LU1480 HuPrime SCLC PDX model; format: in vivo, mice
[5] = Pharmacokinetics after single IV and oral dose, Beagle dogs; format: in vivo; conditions: Dog, male
Method: AUClast=area under the plasma concentration-time curve from time zero to time of last measurable concentration; Cmax=maximum plasma concentration; F=oral bioavailability; hr=hour, PK=pharmacokinetic; SD=standard deviation; t1/2 z=apparent half-life of the terminal phase of the concentration-time curve; tmax=time of Cmax. In mouse, PK parameters were determined using composite plasma samples obtained from n=3animals/time point. In other species, PK parameters are from n=3 animals and values shown are mean and SD (in parentheses).

[6] = Exploratory toxicity study in dogs; format: in vivo; conditions: 0.5 mg/kg/dose QOD
NCI-H1417 SCLC xenograft = conditions: for Median Tumor Volumes Diff.: Day 0 vs Day 65

COc1ccc(-c2c(-c3ccc(C#N)c(F)c3)nc(N3CCC(N)CC3)n(C)c2=O)cc1F [Compound A]
LNCaP cell proliferation (LNCaP cells): greater inhibition of LNCap cell proliferaton
TGI [1]: −7%
ST18 and FREM2 gene expression changes (upregulated) [2]: at least 2 fold
% TGI ([3]; 5 mg base/kg PO QD × 28): 43%
% TGI ([3]; 10 mg base/kg PO QD × 28): 61%
IC50 (NCI-H69 SCLC cell line): 7 µM
% TGI ([4]; 10 mg base/kg PO QD × 21): 72%
TGI ([4]; 10 mg base/kg orally for 15 days (second LU1480 experiment)): 46%
AUC∞ ([5]; single IV 1 mg base/kg): 1944 ng·h/mL
CL ([5]; single IV 1 mg base/kg): 9 mL/min/kg
Vss ([5]; single IV 1 mg base/kg): 11.058 L/kg
t1/2,z ([5]; single IV 1 mg base/kg): 15.5 h
% F ([5]; single oral 1 mg base/kg): 84%
AUClast ([5]; single oral 1 mg base/kg): 1089 ng·h/mL
Cmax ([5]; single oral 1 mg base/kg): 69 ng/mL
t1/2,z ([5]; single oral 1 mg base/kg): 15.0 h
tmax ([5]; single oral 1 mg base/kg): 2.0 h
% F ([5]; single oral 3 mg base/kg): 100%
AUClast ([5]; single oral 3 mg base/kg): 3792 ng·h/mL
Cmax ([5]; single oral 3 mg base/kg): 298 ng/mL
t1/2,z ([5]; single oral 3 mg base/kg): 19.4 h
tmax ([5]; single oral 3 mg base/kg): 1.0 h
% F ([5]; single oral 6 mg base/kg): 100%
AUClast ([5]; single oral 6 mg base/kg): 8792 ng·h/mL
Cmax ([5]; single oral 6 mg base/kg): 627 ng/mL
t1/2,z ([5]; single oral 6 mg base/kg): 17.8 h
tmax ([5]; single oral 6 mg base/kg): 1.0 h
primary findings [6]: Marked thrombocytopenia and acute hemorrhage in mesenteric and mandibular lymph nodes
mean body weight gain by end of study (NCI-H1417 SCLC xenograft; 2.5 mg base/kg): 1%
Median Tumor Volumes Diff. (NCI-H1417 SCLC xenograft; 2.5 mg base/kg PO QD × 65): 69.9 mm^3
mean body weight gain by end of study (NCI-H1417 SCLC xenograft; 5 mg base/kg): 7.5%
Median Tumor Volumes Diff. (NCI-H1417 SCLC xenograft; 5 mg base/kg PO QD × 65): 92.3 mm^3
